From US9302981B2, “Synthesis, methods of using, and compositions of cycloalkylmethylamines” (Reviva Pharmaceuticals, Inc., priority 2006, dated 2016)

Tests used:
[1] = molecular target: human recombinant norepinephrine transporter (NET) (Homo sapiens (Human), UniProt P23975); test: Radioligand binding assay, norepinephrine transporter (MDS Pharma); conditions: for nH (Hill coefficient): NET, slope of the competitive binding curve
Method: The human recombinant transporter proteins dopamine (DAT), norepinephrine (NET) and serotonin (SERT) were selected for the in vitro assays. […] The radioligand binding assays were carried out at four different test concentrations and the test concentrations were 1 nM, 10 nM, 0.1 μM, and 1 μM.
(§1) The assays were carried out in duplicates and the quantitative data are reported as IC50, Ki, and nH. Where presented, IC50 values were determined by a non-linear, least squares regression analysis using MathIQ™ (ID Business Solutions Ltd. UK). […] Where presented, the Hill coefficient (nH), defining the slope of the competitive binding curve, was calculated using MathIQ™.

[2] = molecular target: human recombinant dopamine transporter (DAT) (Homo sapiens (Human), UniProt Q01959); test: Radioligand binding assay, dopamine transporter (MDS Pharma); conditions: for nH (Hill coefficient): DAT, slope of the competitive binding curve
Method: (§2) The monoamine transporters inhibitory activities of selected compounds (54b and 54d) are reported herein. The compounds were evaluated at MDS Pharma services (22011 Drive SE, Bothell, Wash. 98021, USA) using well established radioligand binding assays protocols (Galli, A. et al., J. Exp. Biol. 1995, 198, 2197-2212; Giros, B. et al., Trends Pharmcol. Sci. 1993, 14, 43-49; Gu, H. et al., J. Biol. Chem. 1994, 269(10), 7124-7130; Shearman, L. P. et al, Am. J. Physiol., 1998, 275 (6 Pt 1), C1621-1629; Wolf, W. A. et al., J. Biol. Chem. 1992, 267(29), 20820-20825). The human recombinant transporter proteins dopamine (DAT), norepinephrine (NET) and serotonin (SERT) were selected for the in vitro assays. The CHO-K1 cells expressed with human recombinant dopamine transporter (DAT) (MDS catalog 220320) was used for evaluating the dopamine transporter inhibitory activity. Whereas, MDCK cells expressed with human recombinant transporters norepinephrine (NET) (MDS catalog no. 204410) and serotonin (SERT) (MDS catalog no. 274030) were used for evaluating the norepinephrine transporter (NET) and serotonin transporter (SERT) inhibitory activities, respectively. The radioligand binding assays were carried out at four different test concentrations and the test concentrations were 1 nM, 10 nM, 0.1 μM, and 1 μM.
as §1

[3] = molecular target: human recombinant serotonin transporter (SERT) (Homo sapiens (Human), UniProt P31645); test: Radioligand binding assay, serotonin transporter (MDS Pharma); conditions: for nH (Hill coefficient): SERT, slope of the competitive binding curve
Method: as §2, §1

human recombinant norepinephrine transporter (NET), sequence (P23975 whole entry): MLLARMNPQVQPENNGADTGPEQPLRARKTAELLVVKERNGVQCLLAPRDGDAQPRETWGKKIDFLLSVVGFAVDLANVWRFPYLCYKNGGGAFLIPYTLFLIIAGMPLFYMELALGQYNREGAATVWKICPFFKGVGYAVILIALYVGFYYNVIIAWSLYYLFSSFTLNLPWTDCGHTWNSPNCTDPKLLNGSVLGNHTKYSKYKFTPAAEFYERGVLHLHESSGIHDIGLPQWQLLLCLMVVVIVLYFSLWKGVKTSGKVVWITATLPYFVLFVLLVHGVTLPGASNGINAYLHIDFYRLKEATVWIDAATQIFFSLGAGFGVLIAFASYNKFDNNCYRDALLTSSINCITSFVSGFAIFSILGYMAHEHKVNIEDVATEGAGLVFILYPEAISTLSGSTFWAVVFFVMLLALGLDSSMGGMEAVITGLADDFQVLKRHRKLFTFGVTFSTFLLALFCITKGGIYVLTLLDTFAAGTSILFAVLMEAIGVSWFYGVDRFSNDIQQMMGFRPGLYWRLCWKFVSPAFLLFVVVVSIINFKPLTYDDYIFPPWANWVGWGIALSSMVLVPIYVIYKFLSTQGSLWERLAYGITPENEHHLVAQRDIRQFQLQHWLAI

Compound | IC50 [1] [nM] | Ki [1] [nM] | nH (Hill coefficient) [1] | IC50 [2] [nM] | Ki [2] [nM] | nH (Hill coefficient) [2] | IC50 [3] [nM] | Ki [3] [nM] | nH (Hill coefficient) [3]
CCC(NC(CC(C)C)C1(c2ccc(Cl)cc2)CCC1)C(=O)OCC(C)C (stereo not drawn) [Compound 54d, Isobutyl 2-(1-(1-(4-chlorophenyl)cyclobutyl)-3-methylbutylamino]butanoate] | 182 | 180 | 1.04 | 370 | 294 | 0.943 | 415 | 67.6 | 0.578
CCOC(=O)C(CC)NC(CC(C)C)C1(c2ccc(Cl)cc2)CCC1 (stereo not drawn) [Compound 54b, Ethyl 2-(1-(1-(4-chlorophenyl)cyclobutyl)-3-methylbutylamino]butanoate] | 121 | 120 | 0.832 | 56.9 | 45.2 | 0.826 | 140 | 22.8 | 0.677
